In article PMC10547238, “Discovery of Potent Tetrazole Free Fatty Acid Receptor 2 Antagonists” (Journal of Medicinal Chemistry, 2023):

Legend:
[1] = target: T1, hFFA3 (Homo sapiens, UniProt O14843); assay: cAMP assay, Flp-In T-Rex 293 cells expressing hFFA3-eYFP; type: cell-based; conditions: at 10 μM
T1 construct: expressed in transfected cells; host or cells: Flp-In T-Rex 293 cells, doxycycline-induced
T1 sequence (O14843 1-346): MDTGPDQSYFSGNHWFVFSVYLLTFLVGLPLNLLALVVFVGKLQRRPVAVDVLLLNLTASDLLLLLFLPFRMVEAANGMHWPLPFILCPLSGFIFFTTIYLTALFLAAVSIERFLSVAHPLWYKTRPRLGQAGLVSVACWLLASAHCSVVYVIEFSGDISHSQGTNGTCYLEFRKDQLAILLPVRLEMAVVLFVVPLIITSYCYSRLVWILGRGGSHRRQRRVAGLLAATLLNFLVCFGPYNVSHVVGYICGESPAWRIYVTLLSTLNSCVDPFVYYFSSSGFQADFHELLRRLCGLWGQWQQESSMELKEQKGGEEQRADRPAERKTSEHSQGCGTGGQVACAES
Protocol: The hFFA2-eYFP and hFFA3-eYFP Flp-In T-Rex 293 cell lines were maintained in Dulbecco’s modified Eagle mMedium (DMEM, ThermoFisher #11965092) supplemented with 10% (v/v) fetal bovine serum, 100 U/mL penicillin, 100 μg/mL streptomycin, 5 μg/mL blasticidin S, and 200 μg/mL hygromycin B and incubated at 37 °C and 5% CO2 in a humidified incubator. Cells were passaged at 70–80% confluency.
To determine the compound’s ability to activate or inhibit the Gi-coupled FFA2 or FFA3, intracellular cAMP concentrations were determined using Flp-In T-Rex293 cells induced to express hFFA2-eYFP or hFFA3-eYFP. […]
In agonist mode, the next day, the agonist was added in Hank’s balanced salt solution supplemented with 20 mM HEPES, 1 mM MgCl2, and 1 mM CaCl2 at pH 7.4 (HBSS) together with 50 μM 3-isobutyl-1-methylxanthine (IBMX) and 3 μM forskolin. After 25 min pf incubation at rt, agonist-induced intracellular cAMP production was assessed by stopping the reactions and measuring the output with an Envision plate reader using a time-resolved fluorescence protocol, measuring the light emission at 620 and 665 nm.
In antagonist mode, the cells were pre-incubated for 20 min with antagonist test compounds in HBSS together with 50 μM IBMX at rt. […] All analyses were performed in triplicate and analyzed using GraphPad Prism (version 9).

[2] = Pharmacokinetic study in mice; type: in vivo; conditions: male, BALB/cAnC, mouse, plasma
Protocol: The study was performed by Bienta (www.bienta.net). Study design, animal selection, handling, and treatment were all in accordance with the Enamine PK study protocols and Institutional Animal Care and Use Guidelines. Animal treatment and plasma sample preparation were conducted by the Animal Laboratory personnel at Enamine/Bienta. Male BALB/cAnC mice (10–11 weeks old, body weight: 16.0–21.7 g and average body weight across all groups: 19.1 g, SD = 1.2 g) were used in this study. The animals were randomly assigned to the treatment groups before the pharmacokinetic study; all animals were fasted for 4 h before dosing. Intravenous (IV) and peroral (PO) routes of administration were done according to the following; eight time points for each route (3, 7, 15, 30, 60, 120, 240, and 480 min) for the IV route and (5, 10, 15, 30, 60, 120, 240, and 480 min) for the PO route were set for this pharmacokinetic study. Each of the time point treatment group included three animals. There was also one control animal. Compound 16l in the vehicle (DMSO–Cremophor EL–water w/5% mannitol, 1:1:8) was dosed at 10 mg/kg po and 5 mg/kg iv. Dosing volumes of compounds or vehicle were 5 mL/kg. Mice were injected iv with 2,2,2-tribromoethanol at a dose of 150 mg/kg prior to drawing the blood. Blood collection was performed from the orbital sinus in microtainers containing K3EDTA. Animals were sacrificed by cervical dislocation after the blood sample collection. Blood samples were centrifuged for 10 min at 3000 rpm. Before analysis, plasma samples (40 μL) were added 200 μL of a solution with transilast as the internal standard (200 ng/mL in water–methanol mixture 1:9, v/v). After mixing by pipetting and centrifuging for 4 min at 6000 rpm, 0.5 μL of each supernatant was analyzed by HPLC-MS/MS on an API 3000 PE instrument.

Compound	activity on FFA3 [1]	AUC(0-inf) ([2]; iv admin 5 mg/kg)	Vd ([2]; iv admin 5 mg/kg)	half-life ([2]; iv admin 5 mg/kg)	clearance ([2]; iv admin 5 mg/kg, read-out: CLtotal)	bioavailability ([2]; po 10 mg/kg vs iv 5 mg/kg)	AUC(0-inf) ([2]; po admin 10 mg/kg)	Cmax ([2]; po admin 10 mg/kg)	Tmax ([2]; po admin 10 mg/kg)
COc1cccc(CC(=O)N[C@@H](Cc2ccc(C(F)(F)F)cc2)Cc2nnn[nH]2)c1 [Compound 16l, (S)-N-(1-(1H-Tetrazol-5-yl)-3-(4-(trifluoromethyl)phenyl)propan-2-yl)-2-(3-methoxyphenyl)acetamide]	devoid of activity	7.35 µg·h/mL	0.4 L/kg	24 min	0.66 L/h/kg	44%	6.48 µg·h/mL	6.24 µg/mL	30 min
O=C(Cc1cncc(Br)c1)N[C@@H](Cc1ccc(C(F)(F)F)cc1)Cc1nnn[nH]1 [Compound 16w, (S)-3-(2-((1-(1H-Tetrazol-5-yl)-3-(4-(trifluoromethyl)phenyl)propan-2-yl)amino)-2-oxoethyl)-5-bromopyridin-1-ium 2,2,2-trifluoroacetate]	devoid of activity	–	–	–	–	–	–	–	–
